Data reported in ChEMBL document CHEMBL4373746, “Structural attributes influencing unbound tissue distribution” (Eur J Med Chem, 2020).

Experiments:
[1] = Drug concentration in total brain in Wistar Han rat at 1 to 2 mg/kg, iv infused for 10 to 20 hrs by LC-MS/MS analysis; conditions: in vivo
[2] = Fraction unbound in Wistar Han rat heart at 2 uM incubated for 6 hrs by equilibrium dialysis method
[3] = Unbound tissue partition coefficient, ratio of drug level in liver to plasma in Wistar Han rat at 1 to 2 mg/kg, iv infused for 10 to 20 hrs by LC-MS/MS analysis; conditions: liver/plasma
[4] = Drug concentration in total white adipose tissue in Wistar Han rat at 1 to 2 mg/kg, iv infused for 10 to 20 hrs by LC-MS/MS analysis; conditions: in vivo
[5] = Fraction unbound in Wistar Han rat white adipose tissue at 2 uM incubated for 6 hrs by equilibrium dialysis method
[6] = Fraction unbound in Wistar Han rat liver at 2 uM incubated for 6 hrs by equilibrium dialysis method
[7] = Unbound tissue partition coefficient, ratio of drug level in brain to plasma in Wistar Han rat at 1 to 2 mg/kg, iv infused for 10 to 20 hrs by LC-MS/MS analysis; conditions: brain/plasma
[8] = Unbound tissue partition coefficient, ratio of drug level in heart to plasma in Wistar Han rat at 1 to 2 mg/kg, iv infused for 10 to 20 hrs by LC-MS/MS analysis; conditions: heart/plasma
[9] = Apparent permeability of the compound across dog RRCK cells by MDCK-LE assay
[10] = Unbound tissue partition coefficient, ratio of drug level in adipose to plasma in Wistar Han rat at 1 to 2 mg/kg, iv infused for 10 to 20 hrs by LC-MS/MS analysis; conditions: adipose/plasma
[11] = Drug concentration in total liver in Wistar Han rat at 1 to 2 mg/kg, iv infused for 10 to 20 hrs by LC-MS/MS analysis; conditions: in vivo
[12] = Fraction unbound in Wistar Han rat plasma at 2 uM incubated for 6 hrs by equilibrium dialysis method
[13] = Unbound tissue partition coefficient, ratio of drug level in skeletal muscle to plasma in Wistar Han rat at 1 to 2 mg/kg, iv infused for 10 to 20 hrs by LC-MS/MS analysis; conditions: skeletal muscle/plasma
[14] = Total plasma concentration in Wistar Han rat at 1 to 2 mg/kg, iv infused for 10 to 20 hrs by LC-MS/MS analysis; conditions: in vivo
[15] = Drug concentration in total skeletal muscle in Wistar Han rat at 1 to 2 mg/kg, iv infused for 10 to 20 hrs by LC-MS/MS analysis; conditions: in vivo
[16] = Fraction unbound in Wistar Han rat brain at 2 uM incubated for 6 hrs by equilibrium dialysis method
[17] = Drug concentration in total heart in Wistar Han rat at 1 to 2 mg/kg, iv infused for 10 to 20 hrs by LC-MS/MS analysis; conditions: in vivo
[18] = Fraction unbound in Wistar Han rat skeletal muscle at 2 uM incubated for 6 hrs by equilibrium dialysis method

Structure (SMILES)	Ct [1] [ng/mL]	fraction unbound at 6 h, 2 µM [2]	Kp uu [3]	Ct [4] [ng/mL]	fraction unbound at 6 h, 2 µM [5]	fraction unbound at 6 h, 2 µM [6]	Kp uu [7]	Kp uu [8]	Papp [9] [×10⁻⁶ cm/s]	Kp uu [10]	Ct [11] [ng/mL]	fraction unbound at 6 h, 2 µM [12]	Kp uu [13]	Cp [14] [ng/mL]	Ct [15] [ng/mL]	fraction unbound at 6 h, 2 µM [16]	Ct [17] [ng/mL]	fraction unbound at 6 h, 2 µM [18]
CN(C)C(=O)c1cc(CC(=O)O)ccc1NC(=O)c1ccccc1-c1ccc(C(F)(F)F)cc1	0.42	0.311	49	5.7	0.309	0.205	0.0037	0.77	1.4	0.1	4200	0.214	0.21	83	21	0.183	44	0.174
CC1(OC(=O)N2CCC(n3ncc(COc4ccc(C(N)=O)cc4F)c3C#N)CC2)CC1	40	0.0693	4.7	73	0.137	0.0561	0.24	2.8	26	1.6	520	0.044	1	150	100	0.0366	220	0.0634
CC1(C)CN(CCC#N)C(=O)[C@@H]1Oc1ccc(C#N)c(C(F)(F)F)c1	91	0.152	1	250	0.185	0.122	0.11	0.55	40	0.81	500	0.358	0.48	160	110	0.0717	210	0.263
Nc1noc2ccc(-c3cc(Cl)ccc3Oc3cc(F)c(S(=O)(=O)Nc4cscn4)cc3F)cc12	0.38	0.000968	0.033	11	0.0123	0.00176	0.0018	0.9	3.8	2.4	1.4	0.00155	0.54	36	18	0.00141	54	0.00165
Cn1nc(C(=O)NCCN2CCOCC2)cc1-c1cc2ccccc2[nH]1	19	0.0422	4.4	29	0.189	0.0714	0.12	1.3	33	1.1	300	0.176	0.57	29	42	0.0291	150	0.0664
Cc1nc([C@@H]2CCOC2)c2c(N3CCc4c(c(C5CC5)nn4C)C3)ncnn12	52	0.171	6.2	270	0.101	0.195	0.46	1.7	30	2.3	380	0.178	1.5	66	75	0.103	110	0.23
Cn1ncc(-c2ccc(C(=O)N(c3ncccc3Cl)[C@@H]3CCCNC3)cc2)c1C(=O)O	6.8	1	5	5.4	0.736	0.287	0.16	5.3	0.51	0.21	630	0.692	0.1	55	7.4	1	210	0.595
